Source: patent publication US6352958B1, “Cycloimido-substituted benzofused heterocyclic herbicides” (FMC Corporation, priority 1997, dated 2002)

Legend:
Format in all cases: in vivo
[1] = tested on: soybean (Glycine max var. Winchester); test: Preemergence herbicidal activity, soybean; settings: Rate of Application 0.3 Kg/Ha, examined after 12-17 days
Procedure: (§1) The benzofused heterocyclic compounds of this invention were tested for pre- and postemergence herbicidal activity using a variety of crops and weeds. The test plants included soybean (Glycine max var. Winchester), field corn (Zea mays var. Pioneer 3732), wheat (Triticum aestivum var. Lew), morningglory (Ipomea lacunosa or Ipomea hederacea), velvetleaf (Abutilon theophrasti), green foxtail (Setaria viridis), Johnsongrass (Sorghum halepense), blackgrass (Aloepecurus myosuroides), common chickweed (Stellaria media), and common cocklebur (Xanthium strumarium L.).
(§2) For preemergence testing, two disposable fiber flats (8 cm×15 cm×25 cm) for each rate of application of each candidate herbicide were filled to an approximate depth of 6.5 cm with steam-sterilized sandy loam soil. The soil was leveled and impressed with a template to provide five evenly spaced furrows 13 cm long and 0.5 cm deep in each flat. Seeds of soybean, wheat, corn, green foxtail, and johnsongrass were planted in the furrows of the first flat, and seeds of velvetleaf, morningglory, common chickweed, cocklebur, and blackgrass were planted in the furrows of the second flat. The five-row template was employed to firmly press the seeds into place. A topping soil of equal portions of sand and sandy loam soil was placed uniformly on top of each flat to a depth of approximately 0.5 cm. Flats for postemergence testing were prepared in the same manner except that they were planted 9-14 days prior to the preemergence flats and were placed in a greenhouse and watered, thus allowing the seeds to germinate and the foliage to develop.
(§3) In both pre- and postemergence tests, a stock solution of the candidate herbicide was prepared by dissolving 0.27 g of the compound in 20 mL of water/acetone (50/50) containing 0.5% v/v sorbitan monolaurate. For an application rate of 3000 g/ha of herbicide a 10 mL portion of the stock solution was diluted with water/acetone (50/50) to 45 mL.
(§4) The preemergence flats were initially subjected to a light water spray. The four flats were placed two by two along a conveyor belt (i.e., the two preemergence followed by the two postemergence flats). The conveyor belt fed under a spray nozzle mounted about ten inches above the post-emergent foliage. The preemergent flats were elevated on the belt so that the soil surface was at the same level below the spray nozzle as the foliage canopy of the postemergent plants. The spray of herbicidal solution was commenced and once stabilized, the flats were passed under the spray at a speed to receive a coverage equivalent of 100 L/ha. At this coverage the application rates are those shown in the above table for the individual herbicidal solutions. The preemergence flats were watered immediately thereafter, placed in the greenhouse and watered regularly at the soil surface. The postemergence flats were immediately placed in the green-house and not watered until 24 hours after treatment with the test solution. Thereafter they were regularly watered at ground level. After 12-17 days the plants were examined and the phytotoxicity data were recorded.
(§5) Phytotoxicity data were taken as percent control. Percent control was determined by a method similar to the 0 to 100 rating system disclosed in “Research Methods in Weed Science,” 2nd ed., B. Truelove, Ed.; Southern Weed Science Society; Auburn University, Auburn, Ala., 1977.

[2] = tested on: field corn (Zea mays var. Pioneer 3732); test: Preemergence herbicidal activity, corn; settings: Rate of Application 0.3 Kg/Ha, examined after 12-17 days
Procedure: as §1, §2, §3, §4, §5

[3] = tested on: green foxtail (Setaria viridis); test: Postemergence herbicidal activity, green foxtail; settings: rate of application 0.3 Kg/Ha, rated after 12-17 days
Procedure: as §1, §2, §3, §4, §5

[4] = tested on: soybean (Glycine max var. Winchester); test: Postemergence herbicidal activity, soybean; settings: rate of application 0.3 Kg/Ha, rated after 12-17 days
Procedure: as §1, §2, §3, §4, §5

[5] = tested on: Johnsongrass (Sorghum halepense); test: Preemergence herbicidal activity, johnsongrass; settings: Rate of Application 0.3 Kg/Ha, examined after 12-17 days
Procedure: as §1, §2, §3, §4, §5

[6] = tested on: wheat (Triticum aestivum var. Lew); test: Postemergence herbicidal activity, wheat; settings: rate of application 0.3 Kg/Ha, rated after 12-17 days
Procedure: as §1, §2, §3, §4, §5

[7] = tested on: morningglory (Ipomea lacunosa or Ipomea hederacea); test: Preemergence herbicidal activity, morningglory; settings: Rate of Application 0.3 Kg/Ha, examined after 12-17 days
Procedure: as §1, §2, §3, §4, §5

[8] = tested on: Johnsongrass (Sorghum halepense); test: Postemergence herbicidal activity, johnsongrass; settings: rate of application 0.3 Kg/Ha, rated after 12-17 days
Procedure: as §1, §2, §3, §4, §5

[9] = tested on: velvetleaf (Abutilon theophrasti); test: Postemergence herbicidal activity, velvetleaf; settings: rate of application 0.3 Kg/Ha, rated after 12-17 days
Procedure: as §1, §2, §3, §4, §5

[10] = tested on: wheat (Triticum aestivum var. Lew); test: Preemergence herbicidal activity, wheat; settings: Rate of Application 0.3 Kg/Ha, examined after 12-17 days
Procedure: as §1, §2, §3, §4, §5

[11] = tested on: common chickweed (Stellaria media); test: Preemergence herbicidal activity, chickweed; settings: Rate of Application 0.3 Kg/Ha, examined after 12-17 days
Procedure: as §1, §2, §3, §4, §5

[12] = tested on: common cocklebur (Xanthium strumarium L.); test: Postemergence herbicidal activity, cocklebur; settings: rate of application 0.3 Kg/Ha, rated after 12-17 days
Procedure: as §1, §2, §3, §4, §5

[13] = tested on: velvetleaf (Abutilon theophrasti); test: Preemergence herbicidal activity, velvetleaf; settings: Rate of Application 0.3 Kg/Ha, examined after 12-17 days
Procedure: as §1, §2, §3, §4, §5

[14] = tested on: morningglory (Ipomea lacunosa or Ipomea hederacea); test: Postemergence herbicidal activity, morningglory; settings: rate of application 0.3 Kg/Ha, rated after 12-17 days
Procedure: as §1, §2, §3, §4, §5

[15] = tested on: green foxtail (Setaria viridis); test: Preemergence herbicidal activity, green foxtail; settings: Rate of Application 0.3 Kg/Ha, examined after 12-17 days
Procedure: as §1, §2, §3, §4, §5

[16] = tested on: field corn (Zea mays var. Pioneer 3732); test: Postemergence herbicidal activity, corn; settings: rate of application 0.3 Kg/Ha, rated after 12-17 days
Procedure: as §1, §2, §3, §4, §5

[17] = tested on: common chickweed (Stellaria media); test: Postemergence herbicidal activity, chickweed; settings: rate of application 0.3 Kg/Ha, rated after 12-17 days
Procedure: as §1, §2, §3, §4, §5

[18] = tested on: common cocklebur (Xanthium strumarium L.); test: Preemergence herbicidal activity, cocklebur; settings: Rate of Application 0.3 Kg/Ha, examined after 12-17 days
Procedure: as §1, §2, §3, §4, §5

[19] = tested on: blackgrass (Aloepecurus myosuroides); test: Preemergence herbicidal activity, blackgrass; settings: Alopecurus myosuroides, pre-emergence, Rate of Application 0.3 Kg/Ha, examined after 12-17 days, read-out: PREEMERGENCE HERBICIDAL ACTIVITY (% CONTROL) ALOMY
Procedure: as §1, §2, §3, §4, §5

Row | SMILES | PREEMERGENCE HERBICIDAL ACTIVITY (% CONTROL) SOY [1] | PREEMERGENCE HERBICIDAL ACTIVITY (% CONTROL) CRN [2] | Postemergence herbicidal activity (% control) SETVI [3] | Postemergence herbicidal activity (% control) SOY [4] | PREEMERGENCE HERBICIDAL ACTIVITY (% CONTROL) SORHA [5] | Postemergence herbicidal activity (% control) WHT [6] | PREEMERGENCE HERBICIDAL ACTIVITY (% CONTROL) IPOSS [7] | Postemergence herbicidal activity (% control) SORHA [8] | Postemergence herbicidal activity (% control) ABUTH [9] | PREEMERGENCE HERBICIDAL ACTIVITY (% CONTROL) WHT [10] | PREEMERGENCE HERBICIDAL ACTIVITY (% CONTROL) STEME [11] | Postemergence herbicidal activity (% control) XANPE [12] | PREEMERGENCE HERBICIDAL ACTIVITY (% CONTROL) ABUTH [13] | Postemergence herbicidal activity (% control) IPOSS [14] | PREEMERGENCE HERBICIDAL ACTIVITY (% CONTROL) SETVI [15] | Postemergence herbicidal activity (% control) CRN [16] | Postemergence herbicidal activity (% control) STEME [17] | PREEMERGENCE HERBICIDAL ACTIVITY (% CONTROL) XANPE [18] | also measured
1 | Cn1c(C(F)(F)F)cc(=O)n(-c2c(F)cc(Cl)c3cc(CCO)oc23)c1=O [Compound 239] | 100% | 90% | 100% | 95% | 90% | 60% | 100% | 80% | 100% | 70% | 100% | 100% | 100% | 100% | 100% | 80% | 100% | – | –
2 | CC(=O)OC(C)(C)c1nc2c(-n3c(=O)cc(C(F)(F)F)n(C)c3=O)c(F)cc(Br)c2o1 [Compound 104, 1-METHYL-6-TRIFLUOROMETHYL-3-[7-BROMO-5-FLUORO-2-(2-METHYLCARBONYLOXYPROP-2-YL)BENZOXAZOL-4-YL]-2,4(1 H,3H)-PYRIMIDINEDIONE] | – | – | – | – | – | – | – | – | – | – | – | – | – | – | – | – | – | – | inhibition at 300 g/ha ([18]; Xanthium strumarium, pre-emergence, read-out: PREEMERGENCE HERBICIDAL ACTIVITY (% CONTROL) XANPE): 100%; inhibition at 300 g/ha ([1]; Glycine max, pre-emergence, read-out: PREEMERGENCE HERBICIDAL ACTIVITY (% CONTROL) SOY): 100%; inhibition at 300 g/ha ([2]; Zea mays, pre-emergence, read-out: PREEMERGENCE HERBICIDAL ACTIVITY (% CONTROL) CRN): 100%; inhibition at 300 g/ha ([3]; Setaria viridis, post-emergence, read-out: Postemergence herbicidal activity (% control) SETVI): 100%; inhibition at 300 g/ha ([4]; Glycine max, post-emergence, read-out: Postemergence herbicidal activity (% control) SOY): 100%; inhibition at 300 g/ha ([5]; Sorghum halepense, pre-emergence, read-out: PREEMERGENCE HERBICIDAL ACTIVITY (% CONTROL) SORHA): 100%; inhibition at 300 g/ha ([6]; Triticum aestivum, post-emergence, read-out: Postemergence herbicidal activity (% control) WHT): 100%; inhibition at 300 g/ha [19]: 100%; inhibition at 300 g/ha ([7]; Ipomoea, pre-emergence, read-out: PREEMERGENCE HERBICIDAL ACTIVITY (% CONTROL) IPOSS): 100%; inhibition at 300 g/ha ([8]; Sorghum halepense, post-emergence, read-out: Postemergence herbicidal activity (% control) SORHA): 100%; inhibition at 300 g/ha ([9]; Abutilon theophrasti, post-emergence, read-out: Postemergence herbicidal activity (% control) ABUTH): 100%; inhibition at 300 g/ha ([10]; Triticum aestivum, pre-emergence, read-out: PREEMERGENCE HERBICIDAL ACTIVITY (% CONTROL) WHT): 100%; inhibition at 300 g/ha ([13]; Abutilon theophrasti, pre-emergence, read-out: PREEMERGENCE HERBICIDAL ACTIVITY (% CONTROL) ABUTH): 100%; inhibition at 300 g/ha ([14]; Ipomoea, post-emergence, read-out: Postemergence herbicidal activity (% control) IPOSS): 100%; inhibition at 300 g/ha ([15]; Setaria viridis, pre-emergence, read-out: PREEMERGENCE HERBICIDAL ACTIVITY (% CONTROL) SETVI): 100%; inhibition at 300 g/ha ([16]; Zea mays, post-emergence, read-out: Postemergence herbicidal activity (% control) CRN): 100%
3 | CC(=O)OC(C)(C)c1cc2c(Cl)cc(F)c(-n3c(=O)cc(C(F)(F)F)n(C)c3=O)c2o1 [Compound 253] | 100% | 100% | 100% | 95% | 100% | 100% | 100% | 100% | 100% | 95% | 100% | 100% | 100% | 100% | 100% | 100% | 100% | – | –
4 | CCCCc1cc2c(Cl)ccc(-n3c(=O)cc(C(F)(F)F)n(C)c3=O)c2o1 [Compound 225] | 40% | 30% | 90% | 60% | 60% | 30% | 50% | 60% | 100% | 20% | 70% | 70% | 90% | 75% | 100% | 60% | – | 50% | –
5 | CCOC(=O)c1cc2c(Cl)ccc(-n3c(=O)cc(C(F)(F)F)n(C)c3=O)c2o1 [Compound 268] | 30% | 50% | 70% | 70% | 60% | 40% | 95% | 40% | 50% | 30% | 20% | – | 100% | 90% | 60% | 60% | 20% | 0% | –
